Reference: US10011814B2, “Salt formulations for the fermentation of marine microorganisms” (Triphase Research and Development I Corp., priority 2006, dated 2018)

Test system: Salinispora tropica NPS021184
Assay: Production of Salinosporamide A and analogs in 42 L fermentor culture; titers by HPLC
Details: for decrease of production: Ex.3, chemically defined salt formulation replacing INSTANT OCEAN, with cobalt
Procedure: Seed cultures were prepared by inoculating frozen stock of Salinispora tropica NPS021184 into seed medium. For 10 mL seed medium in a 50-mL culture tube, one frozen stock (˜1.5 mL) was used for inoculation. For 100 mL seed medium in a 500-mL Erlenmeyer flask, two frozen stocks (˜3 mL total) were used for inoculation.
The first seed cultures (either 10 mL medium in a 50-mL tube or 100 mL medium in a 500-mL Erlenmeyer flask) were incubated at 250 rpm and 28° C. for 3 to 4 days before inoculating (5% inoculum) into second seed medium with the same salt composition as used for the first seed cultures. After incubating at 250 rpm and 28° C. for 2 days, the second seed cultures (5% inoculum) were inoculated into an additional third seed culture (400 mL medium in 2.8 L Fembach flask) with the same medium, salt composition and incubation time as the second seed cultures, before inoculating into production media in the fermentor (26 L medium in a 42 L B. Braun Biostat-C fermentor).
The production medium was then supplemented with either INSTANT OCEAN® commercial salt formulation or a chemically defined salt formulation based on the salt supplement used in the seed stages. The chemically defined salt formulation consisted of: […]
The production medium for fermentation was also supplemented with CoCl2.6H2O at a concentration of 52 μg/L. No CoCl2.6H2O was added to the production medium in control samples.
3.5 mL of the fermentation culture was mixed with equal volume of EtOAc in an extraction tube to extract the various metabolites from the production culture.
(§1) The mixture was shaken for 1 hr. An aliquot of the extract (1 mL) was removed and dried under a stream of nitrogen. The dried extract was stored at −20° C. freezer before HPLC analysis. The dried extract was resuspended in 320 μL DMSO and injected into HPLC using the 00TF14 method for analysis.
The production of Salinosporamide A, NPI-0047 and NPI-2065 was monitored by Agilent HP1100 HPLC using an ACE C-18 reversed-phase column (4.6×150 mm), and solvent system consisting of water (0.01% TFA) as solvent A and acetonitrile (0.01% TFA) as solvent B. The elution was started at 100% solvent A for 1 min, 100% solvent A to 35% solvent A gradient in 7 min, held at 35% solvent A for 11 min, 35% solvent A to 100% solvent B in 8 min and held at 100% solvent B for 9 min at a flow rate of 1.5 mL/min with the detector wavelength set at 210 nm and column temperature 35° C.
The first seed culture (100 mL medium) in a 500-mL Erlenmeyer flask was incubated at 250 rpm and 28° C. for 72 hours. 20 mL of the first seed culture was inoculated into second seed culture (400 ml medium) in a 2.8 L Fernbach flask with the same medium as the first seed culture. The second seed culture was incubated at 250 rpm and 28° C. for 48 hours. 200 mL of the […] was inoculated into a B. Braun B-Plus 5 L fermentor containing 4 L third seed medium with the same composition as the first and second seed medium. The thirds seed fermentor culture was incubated at 300 rpm and 28° C. with the airflow rate of 2 L/min for 36 hours. 1.5 L of the third seed culture was inoculated into 26 L production medium in a 42 L B. Braun Biostat-C fermentor.
The production fermentor culture was operated at 200 rpm and 28° C. with the airflow rate of 13 L/min.
as §1, with “3.5 mL of the fermentation culture was mixed with equal volume of EtOAc in an extraction tube to extract the various metabolites from the production culture. The mixture” for “The mixture”, “was shaken on the shaker for 1” for “was shaken for 1”
Alternatively, the production of the compounds can be achieved in a 42 L fermentor system using strain NPS21184. […]

[1] = Ex.3, cobalt in seed and production media with INSTANT OCEAN vs no cobalt

SMILES	decrease of production [%]	decrease of production, on average [1] [%]	increase of production, on average [1] [%]
CC[C@H]1C(=O)N[C@@]2([C@@H](O)[C@@H]3C=CCCC3)C(=O)O[C@@]12C [NPI-0047, Salinosporamide B]	47.3	48.1	–
C[C@@]12OC(=O)[C@]1([C@@H](O)[C@@H]1C=CCCC1)NC(=O)[C@H]2CCCl [NPI-2065]	7.9	23.2	–
C[C@@]12OC(=O)[C@]1([C@@H](O)[C@@H]1C=CCCC1)NC(=O)[C@@H]2CCCl [Salinosporamide A]	8.7	–	14.3
